Results published in US9833431B2, “Pharmaceutical combinations for the treatment of cancer” (Pitney Pharmaceuticals Pty Limited, priority 2013, dated 2017).
“Also recorded” adds a separate entry of the source. Read-outs that look alike come from different tables or passages of the source.

What was measured:
OVCAR-3 = assay: SRB cytotoxicity / proliferation assay, OVCAR-3 cells; conditions: for Interaction of the drug with MPL (synergy), in words: OVCAR-3 cells, concentrations as stated in the figure
Protocol: (§2) Cells were seeded in 96-well plates (2,000-3,000 cells/well) and culture overnight prior to treatment with MPL. Control cultures were treated with ethanol alone.
(§3) Cytotoxicity was assessed using the sulforhodamine B (SRB) assay and reported as half maximal inhibitory concentration (IC50; Table 3). Cells were seeded in 96-well plates (2,000-3,000 cells/well), treated with the indicated compound(s) for 72 h, fixed, washed and stained with 100 μl of 0.4% (w/v) SRB dissolved in 1% acetic acid. Unbound dye was removed by five washes with 1% acetic acid before air-drying.
(§4) In order to evaluate the effect of MPL on the in vitro efficacy of an established drug was evaluated using cell viability and cell proliferation assays. Cell viability was conducted according to standard Trypan Blue method. Cell proliferation was assessed using the sulforhodamine B (SRB) assay. For viability experiments, cells were seeded in 6 well plates, whereas for proliferation assays cells were grown in 96 well plates. Following over-night attachment, cells were treated with the intended drug at various concentrations either alone or in combination with monepantel (MPL) for 72 h. Parallel to this, cells treated with MPL alone were also deployed for comparative purposes. Following incubation for 72 h in a standard cell culture incubator, effect of mono and combined drug treatments on cell viability and/or cell proliferation was assessed through using Trypan Blue or SRB assays respectively.
(§5) For viability assay, at the end of treatment period, cells were washed with PBS, trypsinized and counted using Trypan blue and hemocytometer. For the SRB assay cells were fixed, washed and stained with 100 μl of 0.4% (w/v) SRB dissolved in 1% acetic acid. Unbound dye was removed by five washes with 1% acetic acid before air drying. […] Monepantel (gift by Novartis, Basel, Switzerland) was dissolved in 100% ethanol and then diluted with the cell culture media.
(§6) MPL (5 μM) and combination drugs were applied for 72 h unless indicated.

OVCAR-3 and A2780 = assay type: cell-based, human; conditions: Example 2; cell line not given
A2780 = assay: SRB cytotoxicity / proliferation assay, A2780 cells; conditions: for Interaction of the drug with MPL (synergy), in words: 72 h
Protocol: as §2
(§7) Cells were seeded in 96-well plates (2,000-3,000 cells/well), treated with the indicated compound(s) for 72 h, fixed, washed and stained with 100 μl of 0.4% (w/v) SRB dissolved in 1% acetic acid. Unbound dye was removed by five washes with 1% acetic acid before air-drying.
Cell viability was conducted according to standard Trypan Blue method. Cell proliferation was assessed using the sulforhodamine B (SRB) assay. For viability experiments, cells were seeded in 6 well plates, whereas for proliferation assays cells were grown in 96 well plates. Following over-night attachment, cells were treated with the intended drug at various concentrations either alone or in combination with monepantel (MPL) for 72 h. Parallel to this, cells treated with MPL alone were also deployed for comparative purposes. Following incubation for 72 h in a standard cell culture incubator, effect of mono and combined drug treatments on cell viability and/or cell proliferation was assessed through using Trypan Blue or SRB assays respectively.
as §5

Hep3B = assay: SRB cytotoxicity assay, Hep3B cells; assay type: cell-based, human; conditions: Hep3B cells; MPL at 5 μM; 48 h; FIG. 24
Protocol: (§1) All cell lines described herein were purchased from ATCC. […] Control cultures were treated with ethanol alone.

YOU = assay: SRB cytotoxicity assay, YOU cells; assay type: cell-based, human; conditions: YOU mesothelioma cells; 72 h; FIG. 25
Protocol: as §1

LN-18 = assay: SRB cytotoxicity assay, LN-18 cells; assay type: cell-based, human; conditions: 72 h; for Interaction of the drug with MPL (synergy), in words: LN18 cells, FIG. 21
Protocol: as §1

REN = assay: SRB cytotoxicity assay, REN cells; assay type: cell-based, human; conditions: REN mesothelioma cells; 72 h; FIG. 25
Protocol: as §1

U87 = assay: SRB cytotoxicity assay, U87 cells; assay type: cell-based, human; conditions: U87 cells; 72 h; FIG. 21
Protocol: as §1

PET = assay: SRB cytotoxicity assay, PET cells; assay type: cell-based, human; conditions: PET mesothelioma cells; 72 h; FIG. 25
Protocol: as §1

AsPC1 = assay: SRB cytotoxicity assay, AsPC1 cells; assay type: cell-based, human; conditions: AsPC-1 cells; 72 h; FIG. 23
Protocol: as §1

C170 = assay: SRB cytotoxicity assay, C170 cells; assay type: cell-based; conditions: C170 cells; MPL 5 μM; 5-FU 20 μM, gemcitabine 0.5 μM, oxaliplatin 1 μM; 72 h; FIG. 27
Protocol: as §1

HT-29 = assay: cells; assay type: cell-based; conditions: 72 h
Protocol: as §1

CFPAC-1 = assay: SRB cytotoxicity assay, CFPAC-1 cells; conditions: CFPAC-1 cells, 72 h
Protocol: as §2, §3, §6

HOSE [1] = assay: SRB cytotoxicity assay, HOSE non-malignant control cells; conditions: for Interaction of the drug with MPL (synergy), in words: HOSE non-malignant control cells, concentrations as stated at the place or in the figure
Protocol: (§8) All cell lines described herein were purchased from ATCC. Cells were seeded in 96-well plates (2,000-3,000 cells/well) and culture overnight prior to treatment with MPL. Control cultures were treated with ethanol alone.
as §7
(§9) Corresponding cytotoxicity of the major metabolite MPL-SO2 has also been tested where indicated. […] HUVEC, human fetal astrocytes and HOSE cells are non-transformed, non-immortalized and non-malignant, freshly isolated/low passage number cell populations, from apparently healthy non-diseased tissue. These healthy cell populations were included in the experimental series as controls for non-specific toxicity. Both MPL and MPL-SO2 were suspended in ethanol and applied in final concentrations of 0.5 to 1% ethanol in the respective culture media.
as §4
(§10) For viability assay, at the end of treatment period, cells were washed with PBS, trypsinized and counted using Trypan blue and hemocytometer. For the SRB assay cells were fixed, washed and stained with 100 μl of 0.4% (w/v) SRB dissolved in 1% acetic acid. Unbound dye was removed by five washes with 1% acetic acid before air drying. […] Monepantel (gift by Novartis, Basel, Switzerland) was dissolved in 100% ethanol and then diluted with the cell culture media. Other agents employed in the study were purchased either from Sigma Australia or Sapphire Australia, prepared and preserved for cell culture use according to supplier instructions.
as §6

IGROV-1 = assay: SRB cytotoxicity assay, IGROV-1 cells; assay type: cell-based; conditions: Homo sapiens, IGROV-1, malignant, ovarian, 72 h
Protocol: as §1

CHO = assay: SRB cytotoxicity assay, CHO cells; assay type: cell-based; conditions: Cricetulus griseus, immortalised, ovarian, 72 h
Protocol: as §1

MCF-7 = assay: SRB cytotoxicity assay, MCF-7 cells; assay type: cell-based; conditions: Homo sapiens, MCF7, 72 h, MCF-7, malignant, breast
Protocol: as §1

HaCat = assay: SRB cytotoxicity assay, HaCat cells; assay type: cell-based; conditions: Homo sapiens, immortalised, epidermal, 72 h
Protocol: as §1

SKOV-3 = assay: SRB cytotoxicity assay, SKOV-3 cells; assay type: cell-based; conditions: Homo sapiens, SK-OV-3, SKOV-3, malignant, ovarian, 72 h
Protocol: as §1

[2] = system: all cell lines and cells tested; assay: SRB cytotoxicity assay, all cells of Table 3; assay type: cell-based
Protocol: as §1

1A9 = assay: SRB cytotoxicity assay, 1A9 cells; assay type: cell-based; conditions: Homo sapiens, 1A9, malignant, ovarian, 72 h
Protocol: as §1

HUVEC = assay: SRB cytotoxicity assay, HUVEC; assay type: cell-based; conditions: Homo sapiens, non-malignant, endothelial, 72 h
Protocol: as §1

HOSE [3] = system: HOSE
Protocol: as §8, §7, §9, §4, §10, §6

[4] = A2780 cells, concentrations as stated at the place or in the figure

NC(Cc1c[nH]cn1)C(=O)O (racemic) [DL-histidine]
Interaction of the drug with MPL (synergy), in words (OVCAR-3; 72 h): no synergistic effect | effect of combination with MPL, in words (OVCAR-3 and A2780): no effect

CCCSc1ccc2nc(NC(=O)OC)[nH]c2c1 [A8Z, albendazole]
Interaction of the drug with MPL (synergy), in words (A2780; [4]): good synergistic effect

CN/C(=N/CCSCc1nc[nH]c1C)NC#N [Cimetidine]
Interaction of the drug with MPL (synergy), in words (A2780; [4]): significant combination synergistic effect

N.N.[Cl][Pt][Cl] [Cisplatin, cis-diamminedichloroplatinum(II)]
Interaction of the drug with MPL (synergy), in words (A2780; [4]): some increase of effect | Interaction of the drug with MPL (synergy), in words (Hep3B): No synergy was observed

COc1cc2c(c(OC)c1OC)-c1ccc(OC)c(=O)cc1[C@@H](NC(C)=O)CC2 [Colchicine]
Interaction of the drug with MPL (synergy), in words (A2780; [4]): cytotoxic effect | Interaction of the drug with MPL (synergy), in words (A2780; A2780 cells, concentrations as stated at the place or in the figure, listed as colchicine): synergistic effect; also recorded: synergistic cytotoxicity

COc1cccc2c1C(=O)c1c(O)c3c(c(O)c1C2=O)C[C@@](O)(C(=O)CO)C[C@@H]3O[C@H]1C[C@H](N)[C@H](O)[C@H](C)O1 [Doxorubicin]
Interaction of the drug with MPL (synergy), in words (YOU): synergistic interaction; also recorded: synergistic inhibition | Interaction of the drug with MPL (synergy), in words (OVCAR-3; 72 h): synergistic interaction; also recorded: synergistic inhibition; also recorded: synergistic cytotoxic effect | Interaction of the drug with MPL (synergy), in words (A2780; A2780 cells, concentrations as stated in the figure): synergy; also recorded: synergistic interaction; also recorded: synergistic inhibition | doxorubicin concentration in the absence of MPL equivalent to doxorubicin (10 nM) in the presence of MPL (5 μM) (A2780; A2780 cells, FIG. 1): 1000 nM | IC50 (A2780; read-out: IC50 value, cell proliferation, A2780 cells, with addition of 5 μM MPL, approximate values, FIG. 1): ~0.001 µM | IC50 (A2780; read-out: IC50 value, cell proliferation, A2780 cells, without MPL, approximate values, FIG. 1): ~0.5 µM | Interaction of the drug with MPL (synergy), in words (LN-18): synergistic interaction; also recorded: synergistic inhibition | Interaction of the drug with MPL (synergy), in words (REN): synergistic interaction; also recorded: synergistic inhibition | Interaction of the drug with MPL (synergy), in words (U87): synergistic interaction; also recorded: synergistic inhibition | Interaction of the drug with MPL (synergy), in words (PET): synergistic interaction; also recorded: synergistic inhibition | Interaction of the drug with MPL (synergy), in words (AsPC1): do not display a synergistic interaction | Interaction of the drug with MPL (synergy), in words (Hep3B): synergistic cytotoxicity; also recorded: synergistically inhibits; also recorded: synergistically cytotoxic

O=c1[nH]cc(F)c(=O)[nH]1 [Fluorouracil]
Interaction of the drug(s) with MPL (synergy), in words (C170): synergistic cytotoxicity | effect of combination with MPL, in words (OVCAR-3 and A2780): significant increase in the effect

Nc1ccn([C@@H]2O[C@H](CO)[C@@H](O)C2(F)F)c(=O)n1 [Gemcitabine]
Interaction of the drug with MPL (synergy), in words (YOU): do not display a synergistic interaction | Interaction of the drug(s) with MPL (synergy), in words (HT-29; HT29 cells, MPL 5 μM, 5-FU 20 μM, gemcitabine 0.5 μM, oxaliplatin 1 μM, FIG. 27): synergistic cytotoxicity | Interaction of the drug with MPL (synergy), in words (A2780; [4]): strong synergistic interaction | Interaction of the drug with MPL (synergy), in words (A2780; A2780 cells, concentrations as stated at the place or in the figure, listed as gemcitabine): synergistically inhibits | Interaction of the drug with MPL (synergy), in words (LN-18): synergistic interaction; also recorded: synergistically inhibits | Interaction of the drug with MPL (synergy), in words (REN): do not display a synergistic interaction | Interaction of the drug(s) with MPL (synergy), in words (C170): synergistic cytotoxicity | Interaction of the drug with MPL (synergy), in words (PET): do not display a synergistic interaction | effect of combination with MPL, in words (OVCAR-3 and A2780): notable increase in efficacy | Interaction of the drug with MPL (synergy), in words (AsPC1): strong synergistic interaction; also recorded: synergistically inhibits | Interaction of the drug with MPL (synergy), in words (CFPAC-1; 5 μM MPL, FIG. 23): synergistic interaction; also recorded: synergistically exerted a cytotoxic effect | Interaction of the drug(s) with MPL (synergy), in words (CFPAC-1; 10 μM MPL, data not shown): synergistically exerted a cytotoxic effect | Interaction of the drug with MPL (synergy), in words (Hep3B): No synergy was observed | Interaction of the drug with MPL (synergy), in words (HOSE [1]; 72 h): do not display the same synergistic interaction | Interaction of the drug with MPL (synergy), in words (HOSE [1]; 72 h, listed as gemcitabine): do not display a synergistic interaction; also recorded: without displaying a synergistic interaction

N[C@@H](Cc1c[nH]cn1)C(=O)O [L-histidine]
Interaction of the drug with MPL (synergy), in words (OVCAR-3; 72 h): no synergistic effect | effect of combination with MPL, in words (OVCAR-3 and A2780): no effect

c1ccc([C@H]2CN3CCSC3=N2)cc1 [Levamisole]
Synergistic cytotoxicity between MPL and combined drug (OVCAR-3; OVCAR-3, 5 μM MPL + drug, 72 h, Table 7): ✓^3 | Interaction of the drug with MPL (synergy), in words (OVCAR-3; 72 h): significant synergistic effect; also recorded: does so against OVCAR-3 cells | Interaction of the drug with MPL (synergy), in words (A2780; [4]): did not display a synergistic effect | Interaction of the drug with MPL (synergy), in words (A2780; A2780 cells, concentrations as stated at the place or in the figure, listed as levamisole): does not display a synergistic cytotoxicity | synergistic cytotoxic effect with MPL, predicted (A2780; A2780 cells, levamisole at higher concentrations): may exert a synergistic cytotoxic effect

C[C@](C#N)(COc1cc(C#N)ccc1C(F)(F)F)NC(=O)c1ccc(S(=O)(=O)C(F)(F)F)cc1 [MPL-SO2, monepantel sulphone]
IC50 (IGROV-1): 4.4 ± 1.5 µM | IC50 (OVCAR-3; Homo sapiens, OVCAR-3, 72 h): 5.5 ± 1.3 µM | IC50 (HT-29; Homo sapiens, HT-29, malignant, colorectal, SRB): 2.8 ± 0.7 µM | IC50 (A2780; Homo sapiens, A2780, 72 h): 4.2 ± 2.1 µM | IC50 (LN-18; Homo sapiens, LN-18, malignant, glial, SRB): 6.6 ± 0.7 µM | IC50 (CHO): 73.7 ± 6.9 µM | IC50 (MCF-7): 8 ± 0.7 µM | IC50 (HaCat): 42.7 ± 8 µM | IC50 (SKOV-3): 26 µM | cytotoxicity compared with MPL [2]: generally comparable to the parent compound | IC50 (1A9): 3.4 ± 0.1 µM | IC50 (HUVEC): 47 µM

CC#C[C@]1(O)CC[C@H]2[C@@H]3CCC4=CC(=O)CCC4=C3[C@@H](c3ccc(N(C)C)cc3)C[C@@]21C [Mifepristone]
Interaction of the drug with MPL (synergy), in words (A2780; [4]): significant combination synergistic effect

CN(C)c1ccc(O)c2c1C[C@H]1C[C@H]3[C@H](N(C)C)C(O)=C(C(N)=O)C(=O)[C@@]3(O)C(O)=C1C2=O [Mino, minocycline]
B) Double treatment with MPL: synergistic cytotoxicity, one symbol per experiment (OVCAR-3; OVCAR-3, MPL 5.0 μM + Mino (5 μM), 72 h): ✓✓✓ | B) Double treatment with MPL: synergistic cytotoxicity, one symbol per experiment (OVCAR-3; OVCAR-3, MPL 5.0 μM + Mino (10 μM), 72 h): ✓✓✓ | B) Double treatment with MPL: synergistic cytotoxicity, one symbol per experiment (HOSE [1]; HOSE, MPL 5.0 μM + Mino (5 μM), 72 h): ✓✓✓

O=C1[O][Pt]2([NH][C@@H]3CCCC[C@H]3[NH]2)[O]C1=O [Oxaliplatin]
Interaction of the drug with MPL (synergy / additive cytotoxicity), in words (HOSE [3]): does not exert any additive cytotoxic effect | Interaction of the drug with MPL (synergy / additive cytotoxicity), in words (HOSE [1]; HOSE cells, MPL at 5 μM, 48 h, FIG. 24): does not display a synergistic cytotoxicity

CC/C(=C(\c1ccccc1)c1ccc(OCCN(C)C)cc1)c1ccccc1 [Tamoxifen]
effect of combination with MPL, in words (OVCAR-3 and A2780): significant increase in the effect

Cn1c(=O)c2c(ncn2C)n(C)c1=O [caffeine]
Interaction of the drug with MPL (synergy), in words (OVCAR-3; 72 h): no synergistic effect

NCC(=O)O [glycine]
Interaction of the drug with MPL (synergy), in words (OVCAR-3; 72 h): no synergistic effect | effect of combination with MPL, in words (OVCAR-3 and A2780): no effect

Ivermectin
effect of the drug alone (A2780; A2780 (ovarian)): inhibited | Interaction of the drug with MPL (synergy), in words (A2780; [4]): synergistic effect
